Measurements reported in patent US9309284B2 (priority 2012, dated 2016).

How the values were obtained:
[1] = tested on: NV in replicon-harboring cells; assay: cell-based norovirus replicon system (NV replicon-harboring cells, HG23); details: Norwalk virus, α-hydroxyphosphonates, mixtures of epimers
NV 3CL protease = NV 3CL protease (Norovirus, UniProt Q83883); assay: biochemical; design: species or system norovirus strain Norwalk
SARS-CoV 3CL protease = SARS-CoV 3CL protease (Severe acute respiratory syndrome coronavirus, UniProt P0C6X7); assay: biochemical
EV71 3C protease = EV71 3C protease (Human enterovirus 71, UniProt Q66478); assay: biochemical
EV71 3C protease, sequence (Q66478 1549-1731 limits assumed): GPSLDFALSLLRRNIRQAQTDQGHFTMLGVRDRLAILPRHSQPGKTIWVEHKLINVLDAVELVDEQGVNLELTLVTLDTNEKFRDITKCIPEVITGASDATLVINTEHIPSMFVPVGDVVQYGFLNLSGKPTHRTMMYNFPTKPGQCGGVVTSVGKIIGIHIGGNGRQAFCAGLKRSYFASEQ

cells = assay: cell cytotoxicity (microscopy and CytoTox 96 assay); assay type: cell-based
Source text: Cell Cytotoxicity. The nonspecific cytotoxic effects of each compound on cells were monitored by observation under a microscopy and CytoTox 96 Non-radioactive cytotoxicity assay (Promega, Madison, Wis.).

NV 3CL protease, sequence (Q83883 1101-1281 limits assumed): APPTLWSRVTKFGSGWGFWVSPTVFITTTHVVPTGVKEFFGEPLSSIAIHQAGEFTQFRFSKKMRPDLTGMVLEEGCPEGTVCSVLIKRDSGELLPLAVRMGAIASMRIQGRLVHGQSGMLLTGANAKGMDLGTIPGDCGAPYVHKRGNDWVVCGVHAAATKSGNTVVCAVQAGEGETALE

SMILES	EC50 [1] [µM]	IC50 (NV 3CL protease) [nM]	IC50 (SARS-CoV 3CL protease) [nM]	IC50 (EV71 3C protease) [nM]	toxicity to cells (no toxicity up to) (cells) [µM]
O=C(N[C@@H](CC1CCCCC1)C(=O)N[C@@H](CC1CCNC1=O)C(O)P(=O)(OCc1ccccc1)OCc1ccccc1)OCc1ccccc1 (mixture of isomers) [Compound 7h]	0.6	> 50000	–	–	–
COP(=O)(OC)C(O)[C@H](CC1CCNC1=O)NC(=O)[C@H](CC(C)C)NC(=O)OCc1ccccc1 (mixture of isomers) [Compound 7b]	3.5	> 50000	–	–	–
O=C(N[C@@H](CC1CCCCC1)C(=O)N[C@@H](CC1CCNC1=O)C(O)P(=O)(OCC(F)(F)F)OCC(F)(F)F)OCc1ccccc1 (mixture of isomers) [Compound 7g]	0.25	> 50000	–	–	–
CC(C)C[C@@H]1NC(=O)[C@@H](NC(=O)OCc2ccccc2)Cc2cn(nn2)CCCNC(=O)CC[C@@H](C=O)NC1=O [Compound 13, Benzyl(9-formyl-12-isobutyl-6,11,14-trioxo-1,5,10,13,18,19-hexaazabicyclo[15.2.1]icosa-17(20),18-dien-15-yl)carbamate]	–	5100	15500	1800	–
O=CC(CC1CCNC1=O)NC(=O)C(CC1CCCCC1)N1C(=O)CCC(NC(=O)OCc2ccccc2)C1=O (centres unmarked) [Compound 5, Benzyl(1-(3-cyclohexyl-1-oxo-1-((1-oxo-3-(2-oxopyrrolidin-3-yl)propan-2-yl)amino)propan-2-yl)-2,6-dioxopperidin-3-yl)carbamate]	–	–	–	–	> 150
CC(C)C[C@H](NC(=O)OCc1ccccc1)C(=O)N[C@@H](CC1CCNC1=O)C(O)P(=O)(O)O (mixture of isomers) [Compound 7c]	0.8	> 50000	–	–	–
CCOP(=O)(OCC)C(O)[C@H](CC1CCNC1=O)NC(=O)[C@H](CC1CCCCC1)NC(=O)OCc1ccccc1 (mixture of isomers) [Compound 7d]	0.25	> 50000	–	–	–
CCOP(=O)(OCC)C(O)[C@H](CC1CCNC1=O)NC(=O)[C@H](CC(C)C)NC(=O)OCc1ccccc1 (mixture of isomers) [Compound 7a]	1.1	> 50000	–	–	–
CCCCOP(=O)(OCCCC)C(O)[C@H](CC1CCNC1=O)NC(=O)[C@H](CC1CCCCC1)NC(=O)OCc1ccccc1 (mixture of isomers) [Compound 7f]	0.5	> 50000	–	–	–
COP(=O)(OC)C(O)[C@H](CC1CCNC1=O)NC(=O)[C@H](CC1CCCCC1)NC(=O)OCc1ccccc1 (mixture of isomers) [Compound 7e]	2.8	> 50000	–	–	–
